Reference: ChEMBL document CHEMBL3046822, “Synthesis, antiplatelet aggregation activity, and molecular modeling study of novel substituted-piperazine analogues” (2011)
The source made the active and inactive calls. The calls are words filed in the database; no cut-off is given here.

What was measured:
[1] = Antiaggregating activity in Homo sapiens (human) platelet rich plasma assessed as ristocetin-induced platelet aggregation at 4 uM incubated for 4 min prior to ristocetin-induction measured for 5.5 min by turbidometric analysis (reference value: 65 to 99%); assay type: functional
[2] = Antiaggregating activity in Homo sapiens (human) platelet rich plasma assessed as ristocetin-induced platelet aggregation at 5 uM incubated for 4 min prior to ristocetin-induction measured for 5.5 min by turbidometric analysis (reference value: 65 to 99%); assay type: functional
Platelet [3] = assay: Antiaggregating activity in Homo sapiens (human) platelet rich plasma assessed as inhibition of adrenaline-induced platelet aggregation at 10 uM incubated for 4 min prior to adrenaline-induction measured for 5.5 min by turbidometric analysis; assay type: functional, cell-free
Platelet [4] = assay: Antiaggregating activity in Homo sapiens (human) platelet rich plasma assessed as inhibition of arachidonic acid-induced platelet aggregation at 4 uM incubated for 4 min prior to arachidonic acid-induction measured for 5.5 min by turbidometric analysis; assay type: functional, cell-free
Platelet [5] = assay: Antiaggregating activity in Homo sapiens (human) platelet rich plasma assessed as inhibition of adrenaline-induced platelet aggregation at 4 uM incubated for 4 min prior to adrenaline-induction measured for 5.5 min by turbidometric analysis; assay type: functional, cell-free
Platelet [6] = assay: Antiaggregating activity in Homo sapiens (human) platelet rich plasma assessed as inhibition of ADP-induced platelet aggregation at 10 uM incubated for 4 min prior to ADP-induction measured for 5.5 min by turbidometric analysis; assay type: functional, cell-free
Platelet [7] = assay: Antiaggregating activity in Homo sapiens (human) platelet rich plasma assessed as inhibition of collagen-induced platelet aggregation at 5 uM incubated for 4 min prior to collagen-induction measured for 5.5 min by turbidometric analysis; assay type: functional, cell-free
Platelet [8] = assay: Antiaggregating activity in Homo sapiens (human) platelet rich plasma assessed as inhibition of adrenaline-induced platelet aggregation at 5 uM incubated for 4 min prior to adrenaline-induction measured for 5.5 min by turbidometric analysis; assay type: functional, cell-free
[9] = Antiaggregating activity in Homo sapiens (human) platelet rich plasma assessed as disaggregation of ADP-induced platelet aggregation at 4 uM incubated for 4 min prior to ADP-induction measured for 5.5 min by turbidometric analysis relative to control; assay type: functional
[10] = Antiaggregating activity in Homo sapiens (human) platelet rich plasma assessed as ristocetin-induced platelet aggregation at 10 uM incubated for 4 min prior to ristocetin-induction measured for 5.5 min by turbidometric analysis (reference value: 65 to 99%); assay type: functional
[11] = Antiaggregating activity in Homo sapiens (human) platelet rich plasma assessed as disaggregation of ADP-induced platelet aggregation at 5 uM incubated for 4 min prior to ADP-induction measured for 5.5 min by turbidometric analysis relative to control; assay type: functional
Platelet [12] = assay: Antiaggregating activity in Homo sapiens (human) platelet rich plasma assessed as inhibition of arachidonic acid-induced platelet aggregation at 10 uM incubated for 4 min prior to arachidonic acid-induction measured for 5.5 min by turbidometric analysis; assay type: functional, cell-free
Platelet [13] = assay: Antiaggregating activity in Homo sapiens (human) platelet rich plasma assessed as inhibition of arachidonic acid-induced platelet aggregation at 5 uM incubated for 4 min prior to arachidonic acid-induction measured for 5.5 min by turbidometric analysis; assay type: functional, cell-free
Platelet [14] = assay: Antiaggregating activity in Homo sapiens (human) platelet rich plasma assessed as inhibition of collagen-induced platelet aggregation at 10 uM incubated for 4 min prior to collagen-induction measured for 5.5 min by turbidometric analysis; assay type: functional, cell-free
Platelet [15] = assay: Antiaggregating activity in Homo sapiens (human) platelet rich plasma assessed as inhibition of collagen-induced platelet aggregation at 4 uM incubated for 4 min prior to collagen-induction measured for 5.5 min by turbidometric analysis; assay type: functional, cell-free
Platelet [16] = assay: Antiaggregating activity in Homo sapiens (human) platelet rich plasma assessed as inhibition of arachidonic acid-induced platelet aggregation at 1 uM incubated for 4 min prior to arachidonic acid-induction measured for 5.5 min by turbidometric analysis; assay type: functional, cell-free
Platelet [17] = assay: Antiaggregating activity in Homo sapiens (human) platelet rich plasma assessed as inhibition of adrenaline-induced platelet aggregation at 3 uM incubated for 4 min prior to adrenaline-induction measured for 5.5 min by turbidometric analysis; assay type: functional, cell-free
Platelet [18] = assay: Antiaggregating activity in Homo sapiens (human) platelet rich plasma assessed as inhibition of adrenaline-induced platelet aggregation at 0.6 uM incubated for 4 min prior to adrenaline-induction measured for 5.5 min by turbidometric analysis; assay type: functional, cell-free
Platelet [19] = assay: Antiaggregating activity in Homo sapiens (human) platelet rich plasma assessed as inhibition of ADP-induced platelet aggregation at 3 uM incubated for 4 min prior to ADP-induction measured for 5.5 min by turbidometric analysis; assay type: functional, cell-free
[20] = Antiaggregating activity in Homo sapiens (human) platelet rich plasma assessed as collagen-induced platelet aggregation at 1 uM incubated for 4 min prior to collagen-induction measured for 5.5 min by turbidometric analysis (reference value: 50 to 98%); assay type: functional
Platelet [21] = assay: Antiaggregating activity in Homo sapiens (human) platelet rich plasma assessed as inhibition of ristocetin-induced platelet aggregation at 3 uM incubated for 4 min prior to ristocetin-induction measured for 5.5 min by turbidometric analysis; assay type: functional, cell-free
Platelet [22] = assay: Antiaggregating activity in Homo sapiens (human) platelet rich plasma assessed as inhibition of arachidonic acid-induced platelet aggregation at 3 uM incubated for 4 min prior to arachidonic acid-induction measured for 5.5 min by turbidometric analysis; assay type: functional, cell-free
Platelet [23] = assay: Antiaggregating activity in Homo sapiens (human) platelet rich plasma assessed as inhibition of collagen-induced platelet aggregation at 3 uM incubated for 4 min prior to collagen-induction measured for 5.5 min by turbidometric analysis; assay type: functional, cell-free
[24] = Antiaggregating activity in Homo sapiens (human) platelet rich plasma assessed as disaggregation of arachidonic acid-induced platelet aggregation at 0.06 uM incubated for 4 min prior to arachidonic acid-induction measured for 5.5 min by turbidometric analysis relative to control; assay type: functional
Platelet [25] = assay: Antiaggregating activity in Homo sapiens (human) platelet rich plasma assessed as inhibition of adrenaline-induced platelet aggregation at 1 uM incubated for 4 min prior to adrenaline-induction measured for 5.5 min by turbidometric analysis; assay type: functional, cell-free
[26] = Antiaggregating activity in Homo sapiens (human) platelet rich plasma assessed as ADP-induced platelet aggregation at 0.6 uM incubated for 4 min prior to ADP-induction measured for 5.5 min by turbidometric analysis (reference value: 54 to 88%); assay type: functional
[27] = Antiaggregating activity in Homo sapiens (human) platelet rich plasma assessed as ristocetin-induced platelet aggregation at 0.6 uM incubated for 4 min prior to ristocetin-induction measured for 5.5 min by turbidometric analysis (reference value: 65 to 99%); assay type: functional
[28] = Antiaggregating activity in Homo sapiens (human) platelet rich plasma assessed as collagen-induced platelet aggregation at 0.6 uM incubated for 4 min prior to collagen-induction measured for 5.5 min by turbidometric analysis (reference value: 50 to 98%); assay type: functional
[29] = Antiaggregating activity in Homo sapiens (human) platelet rich plasma assessed as ristocetin-induced platelet aggregation at 1 uM incubated for 4 min prior to ristocetin-induction measured for 5.5 min by turbidometric analysis (reference value: 65 to 99%); assay type: functional
[30] = Antiaggregating activity in Homo sapiens (human) platelet rich plasma assessed as ADP-induced platelet aggregation at 1 uM incubated for 4 min prior to ADP-induction measured for 5.5 min by turbidometric analysis (reference value: 54 to 88%); assay type: functional
[31] = Antiaggregating activity in Homo sapiens (human) platelet rich plasma assessed as ristocetin-induced platelet aggregation at 0.5 uM incubated for 4 min prior to ristocetin-induction measured for 5.5 min by turbidometric analysis (reference value: 65 to 99%); assay type: functional
Platelet [32] = assay: Antiaggregating activity in Homo sapiens (human) platelet rich plasma assessed as inhibition of arachidonic acid-induced platelet aggregation at 0.4 uM incubated for 4 min prior to arachidonic acid-induction measured for 5.5 min by turbidometric analysis; assay type: functional, cell-free
Platelet [33] = assay: Antiaggregating activity in Homo sapiens (human) platelet rich plasma assessed as inhibition of ADP-induced platelet aggregation at 1 uM incubated for 4 min prior to ADP-induction measured for 5.5 min by turbidometric analysis; assay type: functional, cell-free
Platelet [34] = assay: Antiaggregating activity in Homo sapiens (human) platelet rich plasma assessed as inhibition of collagen-induced platelet aggregation at 0.5 uM incubated for 4 min prior to collagen-induction measured for 5.5 min by turbidometric analysis; assay type: functional, cell-free
Platelet [35] = assay: Antiaggregating activity in Homo sapiens (human) platelet rich plasma assessed as inhibition of ADP-induced platelet aggregation at 0.4 uM incubated for 4 min prior to ADP-induction measured for 5.5 min by turbidometric analysis; assay type: functional, cell-free
Platelet [36] = assay: Antiaggregating activity in Homo sapiens (human) platelet rich plasma assessed as inhibition of collagen-induced platelet aggregation at 1 uM incubated for 4 min prior to collagen-induction measured for 5.5 min by turbidometric analysis; assay type: functional, cell-free
Platelet [37] = assay: Antiaggregating activity in Homo sapiens (human) platelet rich plasma assessed as inhibition of collagen-induced platelet aggregation at 0.4 uM incubated for 4 min prior to collagen-induction measured for 5.5 min by turbidometric analysis; assay type: functional, cell-free
Platelet [38] = assay: Antiaggregating activity in Homo sapiens (human) platelet rich plasma assessed as inhibition of adrenaline-induced platelet aggregation at 0.5 uM incubated for 4 min prior to adrenaline-induction measured for 5.5 min by turbidometric analysis; assay type: functional, cell-free
[39] = Antiaggregating activity in Homo sapiens (human) platelet rich plasma assessed as ristocetin-induced platelet aggregation at 0.4 uM incubated for 4 min prior to ristocetin-induction measured for 5.5 min by turbidometric analysis (reference value: 65 to 99%); assay type: functional
Platelet [40] = assay: Antiaggregating activity in Homo sapiens (human) platelet rich plasma assessed as inhibition of ADP-induced platelet aggregation at 0.5 uM incubated for 4 min prior to ADP-induction measured for 5.5 min by turbidometric analysis; assay type: functional, cell-free
[41] = Antiaggregating activity in human platelet rich plasma assessed as disaggregation of ristocetin-induced platelet aggregation at 1 uM incubated for 4 min prior to ristocetin-induction measured for 5.5 min by turbidometric analysis relative to control; assay type: functional
Platelet [42] = assay: Antiaggregating activity in Homo sapiens (human) platelet rich plasma assessed as inhibition of arachidonic acid-induced platelet aggregation at 0.5 uM incubated for 4 min prior to arachidonic acid-induction measured for 5.5 min by turbidometric analysis; assay type: functional
Platelet [43] = assay: Antiaggregating activity in Homo sapiens (human) platelet rich plasma assessed as inhibition of adrenaline-induced platelet aggregation at 0.4 uM incubated for 4 min prior to adrenaline-induction measured for 5.5 min by turbidometric analysis; assay type: functional, cell-free
[44] = Antiaggregating activity in Homo sapiens (human) platelet rich plasma assessed as adrenaline-induced platelet aggregation at 1 uM incubated for 4 min prior to adrenaline-induction measured for 5.5 min by turbidometric analysis (reference value: 65 to 100%); assay type: functional
Platelet [45] = assay: Antiaggregating activity in Homo sapiens (human) platelet rich plasma assessed as inhibition of ristocetin-induced platelet aggregation at 2.5 uM incubated for 4 min prior to ristocetin-induction measured for 5.5 min by turbidometric analysis; assay type: functional, cell-free
[46] = Antiaggregating activity in Homo sapiens (human) platelet rich plasma assessed as ADP-induced platelet aggregation at 2.5 uM incubated for 4 min prior to ADP-induction measured for 5.5 min by turbidometric analysis (reference value: 54 to 88%); assay type: functional
[47] = Antiaggregating activity in Homo sapiens (human) platelet rich plasma assessed as arachidonic acid-induced platelet aggregation at 1 uM incubated for 4 min prior to arachidonic acid-induction measured for 5.5 min by turbidometric analysis (reference value: 55 to 100%); assay type: functional
[48] = Antiaggregating activity in Homo sapiens (human) platelet rich plasma assessed as arachidonic acid-induced platelet aggregation at 0.6 uM incubated for 4 min prior to arachidonic acid-induction measured for 5.5 min by turbidometric analysis (reference value: 55 to 100%); assay type: functional
[49] = Antiaggregating activity in Homo sapiens (human) platelet rich plasma assessed as collagen-induced platelet aggregation at 2.5 uM incubated for 4 min prior to collagen-induction measured for 5.5 min by turbidometric analysis (reference value: 50 to 98%); assay type: functional
[50] = Antiaggregating activity in Homo sapiens (human) platelet rich plasma assessed as adrenaline-induced platelet aggregation at 2.5 uM incubated for 4 min prior to adrenaline-induction measured for 5.5 min by turbidometric analysis (reference value: 65 to 100%); assay type: functional

Structure (SMILES): O=C(c1ccc[n+](Cc2ccc(F)cc2)c1)N1CCN(c2ccccc2Cl)CC1.[Cl-]
- Activity [1]: 88%
- Activity [2]: 87%
- inhibition (Platelet [3]): Active
- inhibition (Platelet [4]): Active
- inhibition (Platelet [5]): Active
- inhibition (Platelet [6]): Active
- inhibition (Platelet [7]): Active
- inhibition (Platelet [8]): Active
- Activity [9]: 60%
- Activity [10]: 24%
- Activity [11]: 40%
- inhibition (Platelet [12]): Active
- inhibition (Platelet [13]): Active
- inhibition (Platelet [14]): Active
- inhibition (Platelet [15]): Active

Structure (SMILES): Cl.O=C(c1cccnc1)N1CCN(c2ncccn2)CC1
- inhibition (Platelet [16]): Active
- inhibition (Platelet [17]): Active
- inhibition (Platelet [18]): Active
- inhibition (Platelet [19]): Active
- Activity [20]: 72%
- inhibition (Platelet [21]): Active
- inhibition (Platelet [22]): Active
- inhibition (Platelet [23]): Active
- Activity [24]: 20%
- inhibition (Platelet [25]): Active
- Activity [26]: 40%
- Activity [27]: 76%
- Activity [28]: 58%
- Activity [29]: 74%
- Activity [30]: 13%

Structure (SMILES): Cl.O=C(c1cccnc1)N1CCN(c2ccccc2Cl)CC1
- Activity [31]: 71%
- inhibition (Platelet [32]): Active
- inhibition (Platelet [33]): Active
- inhibition (Platelet [16]): Active
- inhibition (Platelet [34]): Active
- inhibition (Platelet [35]): Active
- inhibition (Platelet [36]): Active
- inhibition (Platelet [37]): Active
- inhibition (Platelet [38]): Active
- Activity [39]: 77%
- inhibition (Platelet [25]): Active
- inhibition (Platelet [40]): Active
- Activity [41]: 23%
- inhibition (Platelet [42]): Active
- inhibition (Platelet [43]): Active

Structure (SMILES): O=C(c1ccc[n+](Cc2ccccc2)c1)N1CCN(c2ccccc2Cl)CC1.[Cl-]
- Activity [20]: 80%
- Activity [44]: 75%
- inhibition (Platelet [45]): Active
- Activity [46]: 83%
- Activity [47]: 67%
- Activity [48]: 53%
- Activity [49]: 82%
- Activity [50]: 12%
- Activity [29]: 89%
- Activity [30]: 83%
